According to patent US11548889B2, “Emetine auristatin compounds” (Arizona Board of Regents on behalf of Arizona State …, priority 2019, dated 2023):
Where a name gives a salt, the structure may show the parent alone. Read-outs that look alike come from different tables or passages of the source.

Key:
[1] = system: SF-268 (CNS); experiment: Human cancer cell growth inhibition, sulforhodamine B assay (NCI); type: cell-based
Procedure: (§1) Cancer Cell Line Procedures. Human cancer cell growth inhibition was measured using the standard sulforhodamine B assay of the U.S. National Cancer Institute, as previously described.^12 Briefly, cells in a 5% fetal bovine serum/RPMI1640 medium were inoculated in 96-well plates and incubated for 24 h. That was followed by serial dilutions of the compounds added. Forty-eight hours later the plates were fixed with trichloroacetic acid, stained with sulforhodamine B, and read with an automated microplate reader.

[2] = system: Human Cancer Cell Lines; experiment: Human cancer cell growth inhibition, summary over the six cell line panel; type: cell-based; settings: for biological activity (cancer cell growth inhibition): six cell line panel; for decrease in biological activity compared to both emetine and Compound 5: in four cell lines
Procedure: as §1
(§2) Next, growth inhibition of 50% (GI50 or the drug concentration causing a 50% reduction in the net protein increase) was calculated from optical density data with Immunosoft® software.

[3] = system: MCF-7 (breast); experiment: Human cancer cell growth inhibition, sulforhodamine B assay (NCI); type: cell-based
Procedure: as §1, §2

[4] = system: KM20L2 (colon); experiment: as above; type: cell-based
Procedure: as §1, §2

[5] = system: BXPC-3 (pancreas); experiment: as above; type: cell-based
Procedure: as §1, §2

[6] = system: DU-145 (prostate); experiment: as above; type: cell-based
Procedure: as §1, §2

[7] = system: NCI-H460 (lung); experiment: as above; type: cell-based
Procedure: as §1, §2

[8] = system: NCI 60 Cancer cell screen; settings: cited from earlier work
[9] = NCI-H460, 48 h, sulforhodamine B

| Structure (SMILES) | GI50 ([1]; Homo sapiens, SF-268) [nM] | GI50 ([1]; Homo sapiens, SF-268, 48 h) [µg/mL] | GI50 ([3]; Homo sapiens, MCF7) [nM] | GI50 ([3]; Homo sapiens, MCF7, 48 h) [µg/mL] | GI50 ([4]; Homo sapiens, KM-20L2) [nM] | GI50 ([4]; Homo sapiens, KM-20L2, 48 h) [µg/mL] | GI50 ([5]; Homo sapiens, BXPC-3) [nM] | GI50 ([5]; Homo sapiens, BXPC-3, 48 h) [µg/mL] | GI50 ([6]; Homo sapiens, DU-145) [nM] | GI50 ([6]; Homo sapiens, DU-145, 48 h) [µg/mL] | GI50 ([7]; Homo sapiens, NCI-H460) [nM] | GI50 ([7]; Homo sapiens, NCI-H460, 48 h) [µg/mL] | GI50 ([1]; SF-268, 48 h, sulforhodamine B) [µg/mL] | GI50 ([3]; MCF-7, 48 h, sulforhodamine B) [µg/mL] | GI50 ([4]; KM20L2, 48 h, sulforhodamine B) [µg/mL] | GI50 ([5]; BXPC-3, 48 h, sulforhodamine B) [µg/mL] | GI50 ([6]; DU-145, 48 h, sulforhodamine B) [µg/mL] | GI50 [7, 9] [µg/mL] | biological activity (cancer cell growth inhibition) [2] | also measured |
| --- | --- | --- | --- | --- | --- | --- | --- | --- | --- | --- | --- | --- | --- | --- | --- | --- | --- | --- | --- | --- |
| CC[C@H]1CN2CCc3cc(OC)c(OC)cc3C2C[C@@H]1C[C@@H]1c2cc(OC)c(OC)cc2CCN1C(=O)[C@H](C)[C@@H](OC)C1CCCN1C(=O)C[C@@H](OC)[C@H]([C@@H](C)CC)N(C)C(=O)[C@@H](NC(=O)[C@H](C(C)C)N(C)C)C(C)C (stereo in doubt) [Compound 5, 2N′-(Dov-Val-Dil-Dap)-Emetine] | 30.2 | 0.032 | 35.8 | 0.038 | 35.8 | 0.038 | 386 | 0.41 | 12.3 | 0.013 | 198 | 0.21 |  |  |  |  |  |  |  | cytotoxicity relative to emetine ([2]; in four of the six cell lines): comparable to that of emetine; decrease in activity compared to emetine ([5]; BXPC-3 cell line): 10 fold |
| CC[C@H]1CN2CCc3cc(OC)c(OC)cc3[C@@H]2C[C@@H]1C[C@H]1NCCc2cc(OC)c(OC)cc21 [Compound 1, emetine dihydrochloride, reference compound] |  |  |  |  |  |  |  |  |  |  |  |  |  |  |  |  |  |  |  | GI50 ([3]; Homo sapiens, MCF7, MCF-7, 48 h, sulforhodamine B, read-out: GI50): 0.03 µg/mL; GI50 ([3]; Homo sapiens, MCF7, MCF-7, value in brackets, read-out: GI50): 54.2 nM; GI50 ([4]; Homo sapiens, KM-20L2, KM20L2, 48 h, sulforhodamine B, read-out: GI50): 0.026 µg/mL; GI50 ([4]; Homo sapiens, KM-20L2, KM20L2, value in brackets, read-out: GI50): 47 nM; GI50 ([5]; Homo sapiens, BXPC-3, 48 h, sulforhodamine B, read-out: GI50): 0.031 µg/mL; GI50 ([5]; Homo sapiens, BXPC-3, value in brackets, read-out: GI50): 56 nM; GI50 ([6]; Homo sapiens, DU-145, 48 h, sulforhodamine B, read-out: GI50): 0.02 µg/mL; GI50 ([6]; Homo sapiens, DU-145, value in brackets, read-out: GI50): 36.1 nM; GI50 ([7]; Homo sapiens, NCI-H460, 48 h, sulforhodamine B, read-out: GI50): 0.022 µg/mL; GI50 ([7]; Homo sapiens, NCI-H460, value in brackets, read-out: GI50): 39.7 nM |
| CCC1CN2CCc3cc(OC)c(OC)cc3C2CC1CC1c2cc(OC)c(OC)cc2CCN1C(=O)C(C)C(OC)C1CCCN1.O=C(O)C(F)(F)F (stereo not shown) [Compound 3, 2′-N-(Dap)-emetine TFA salt] |  |  |  |  |  |  |  |  |  |  |  |  | 3.2 | 1.4 | 3.0 | 2.1 | 3.0 | 5.0 |  | GI50 ([1]; SF-268, value in brackets, read-out: GI50): 3650 nM; decrease in activity compared to emetine ([2]; in all six cell lines): 100 fold; GI50 ([3]; MCF-7, value in brackets, read-out: GI50): 1600 nM; GI50 ([4]; KM20L2, value in brackets, read-out: GI50): 3420 nM; GI50 ([5]; BXPC-3, value in brackets, read-out: GI50): 2390 nM; GI50 ([6]; DU-145, value in brackets, read-out: GI50): 3420 nM; GI50 ([7]; NCI-H460, value in brackets, read-out: GI50): 5700 nM |
| CCC1CN2CCc3cc(OC)c(OC)cc3C2CC1CC1c2cc(OC)c(OC)cc2CCN1C(=O)CCNC(=O)OC(C)(C)C (stereo not drawn) [Compound 6, 2′-(N-carboxy-β-alanyl)-tert-butyl emetine ester] |  |  |  |  |  |  |  |  |  |  |  |  | >10 | 10 | >10 | >10 | >10 | >10 | inactive |  |
| CC[C@H]1CN2CCc3cc(OC)c(OC)cc3C2C[C@@H]1C[C@@H]1c2cc(OC)c(OC)cc2CCN1C(=O)CCN (stereo partly drawn) [Compound 7, 2′-N-(β-alanine)-emetine TFA salt] |  | > 10 |  | > 10 |  | > 10 |  | 10.3 |  | 10.1 |  | > 10 |  |  |  |  |  |  | inactive |  |
| CCC1CN2CCc3cc(OC)c(OC)cc3C2CC1CC1c2cc(OC)c(OC)cc2CCN1C(=O)CCNC(=O)C(C)C(OC)C1CCCN1C(=O)OC(C)(C)C (stereo not shown) [Compound 8, 2′-N-(boc-dap-[…]-ala)-emetine] |  |  |  |  |  |  |  |  |  |  |  |  | >10 | >10 | >10 | >10 | 10.0 | >10 | inactive |  |
| CC[C@H]1CN2CCc3cc(OC)c(OC)cc3C2C[C@@H]1C[C@@H]1c2cc(OC)c(OC)cc2CCN1C(=O)CCNC(=O)[C@H](C)[C@@H](OC)C1CCCN1C(=O)C[C@@H](OC)C([C@@H](C)CC)N(C)C(=O)[C@@H](NC(=O)[C@H](C(C)C)N(C)C)C(C)C (stereo partly drawn) [Compound 9, Dov-Val-Dil-Dap-β-Ala-Emetine] | 186 | 0.21 | 159 | 0.18 | 194 | 0.22 | 3800 | 4.3 | 97.2 | 0.11 | 2830 | 3.2 |  |  |  |  |  |  |  | decrease in biological activity compared to both emetine and Compound 5 [2]: 10 fold |
| CC[C@H]1CN2CCc3cc(OC)c(OC)cc3C2C[C@@H]1C[C@@H]1c2cc(OC)c(OC)cc2CCN1CCNC(=O)[C@H](C)[C@@H](OC)C1CCCN1C(=O)C[C@@H](OC)C([C@@H](C)CC)N(C)C(=O)[C@@H](NC(=O)[C@H](C(C)C)N(C)C)C(C)C (stereo partly drawn) [Compound 10, 2′-N-(ethylamine-N-Dap-Dil-Val-Dov)-Emetine] | 272 | 0.3 | 118 | 0.13 | 362 | 0.4 | 1900 | 2.1 | 181 | 0.2 | 4530 | 5 |  |  |  |  |  |  |  | decrease in biological activity compared to both emetine and Compound 5 [2]: 10 fold |
| CC[C@H]1CN2CCc3cc(OC)c(OC)cc3[C@@H]2C[C@@H]1C[C@H]1NCCc2cc(OC)c(OC)cc21 [Emetine] |  |  |  |  |  |  |  |  |  |  |  |  |  |  |  |  |  |  |  | G150 [8]: 27 nM |
